Test results published in patent US8231887B2, “Pesticidal compositions” (BASF Corporation, priority 2008, dated 2012).
Values joined by “and” are separate entries in the source; they are usually repeats but may differ in a detail not shown here. Equal values may be shown once.

Columns and labels:
cockroaches [1] = assay: Topical toxicity test of various compounds and/or PD23 mineral oil, dead at 24 h (Example 12); assay type: in vivo, Blattella germanica; details: for increase in mortality when combined with PD23 mineral oil: result in words, compared to the other compounds tested; for Proportion dead at 24 h: calculated proportion
Method: (§1) Toxicity evaluations were performed on 7-14 day old adult male and female German cockroaches (SCJ Strain, S.C. Johnson & Son, Racine, Wis.). Approximately 12 cockroaches were transferred to individual 100×20 mm polystyrene Petri dishes and anesthetized with a 15-25 second exposure to carbon dioxide. The inside edge of each Petri dish was lightly coated with mineral oil plus petroleum jelly in a 1:3 (wt/wt) ratio to minimize escape. Anesthetized cockroaches were positioned with their ventral side up, and a 1 μl drop of the diluted test composition was applied to the area between the meso- and metathoracic legs using a Rainin L-10, 10 μl capacity pipette (Rainin Instrument, LLC, Oakland, Calif.). Five replications of 12 male cockroaches were done for each test composition. Separate tests were done using female cockroaches. Results were evaluated at 24 hours following treatment. Cockroaches were scored as either alive (dorsal side up, active movement when abdomen prodded with dissecting probe) or moribund/dead (dorsal side up and no movement when abdomen prodded or ventral side up and insect unable to right itself).

cockroaches [2] = assay: Topical toxicity test of alcohols and/or PD23 mineral oil, dead at 24 h (Example 10); assay type: in vivo, Blattella germanica
Method: as §1
The compositions comprising alcohol and/or mineral oil are described in Table 13.

[3] = Table 14, composite data of the replicates
[4] = Table 14, composite data, calculated proportion
[5] = Table 13, per replicate of 10-16 treated cockroaches, mg per insect in the label
[6] = compound alone, 0.25 mg, one replicate group per row
[7] = Table 17, composite data, listed as nitromethane (75-52-5) (0.80 mg)

Row | Compound | # dead at 24 h (cockroaches [1]; Table 17, composite data) | Proportion dead at 24 h (cockroaches [1]; Table 17, composite data) | # dead at 24 h (cockroaches [2]; [3]) | Proportion dead at 24 h (cockroaches [2]; [4]) | also measured
1 | CC(=O)c1ccccc1 [Acetophenone (98-86-2) (0.10 mg), Acetophenone] | 0 |  |  |  | increase in mortality when combined with PD23 mineral oil (cockroaches [1]): greatest increase in mortality
2 | CC(Cl)(Cl)Cl [Methyl chloroform (71-55-6) (2.00 mg), Methyl chloroform] | 2 | 0.095 |  |  | 
3 | CCCCCCCCCCCO [Composition 1-undecanol, 1-undecanol] |  |  | 4 | 0.105 | 
4 | CCCCCCCCCCCCO [Composition 1-dodecanol, 1-dodecanol] |  |  | 3 | 0.077 | 
5 | CCOCC [diethyl ether (60-29-7) (2.0 mg), diethyl ether] | 0 | 0.000 |  |  | 
6 | CCCCCCCCCCO [Composition 1-decanol, 1-decanol] |  |  | 1 | 0.027 | 
7 | Diisopropyl biphenyl | 0 | 0.000 |  |  | 
8 | CC(Cl)(Cl)Cl [Methyl chloroform] |  |  |  |  | # dead at 24 h (cockroaches [1]; compound alone, 2.00 mg): 1; Proportion dead at 24 hr (cockroaches [1]; compound alone, 2.00 mg): 0.091 and 0.100
9 | CCCCCCO [Composition 1-hexanol, 1-hexanol] |  |  | 3 | 0.083 | Proportion dead at 24 h (cockroaches [2]; Table 13, per replicate): 0.083; # dead at 24 h (cockroaches [2]; [5]): 1
10 | CCO [Ethanol] |  |  | 1 | 0.027 | 
11 | CCCCCCCCO [Composition 1-octanol, 1-octanol] |  |  | 2 | 0.054 | 
12 | O=C1CCCO1 [gamma butyrolactone (96-48-0) (0.25 mg), gamma butyrolactone] | 11 | 0.407 |  |  | increase in mortality when combined with PD23 mineral oil (cockroaches [1]): greatest increase in mortality
13 | CC(=O)OC(C)C [Isopropyl acetate] |  |  |  |  | # dead at 24 h (cockroaches [1]; compound alone, 1.00 mg): 1 and 2; Proportion dead at 24 hr (cockroaches [1]; compound alone, 1.00 mg): 0.200
14 | ClCCl [Dichloromethane] |  | 0.000 |  |  | pest or weed control at 1.5 mg (cockroaches [1]; Blattella germanica, topical, 24 h, read-out: Proportion dead at 24 hr): 0%; # dead at 24 h (cockroaches [1]; compound alone, 1.50 mg): 0
15 | CC(=O)OC(C)C [Isopropyl acetate (108-21-4) (1.0 mg), Isopropyl acetate] | 3 | 0.150 |  |  | 
16 | Hexanes |  |  |  |  | # dead at 24 h (cockroaches [1]; compound alone, 0.80 mg): 1; Proportion dead at 24 hr (cockroaches [1]; compound alone, 0.80 mg): 0.100
17 | CC(C)CO [isobutyl alcohol] |  |  | 1 | 0.026 | # dead at 24 h (cockroaches [2]; Table 13, per replicate of 10-16 treated cockroaches, mg per insect in the label, listed as isobutyl alcohol (0.50 mg)): 1; Proportion dead at 24 h (cockroaches [2]; Table 13, per replicate, listed as isobutyl alcohol (0.50 mg)): 0.071
18 | CC(C)(C)O [tertiary butyl alcohol] |  |  | 2 | 0.045 | # dead at 24 h (cockroaches [2]; Table 13, per replicate of 10-16 treated cockroaches, mg per insect in the label, listed as t-butyl alcohol (0.5 mg)): 0 (3×) and 2; Proportion dead at 24 h (cockroaches [2]; Table 13, per replicate, listed as t-butyl alcohol (0.5 mg)): 0.000
19 | C1CCOC1 [Tetrahydrofuran (109-99-9) (0.80 mg), Tetrahydrofuran] | 3 | 0.300 |  |  | 
20 | CCC(C)=O [2-butanone] | 3 | 0.083 |  |  | 
21 | CC(=O)CC(C)(C)O [Diacetone alcohol] |  |  | 1 | 0.025 | 

Row | Compound | # dead at 24 h (cockroaches [1]; Table 17, composite data) | Proportion dead at 24 h (cockroaches [1]; Table 17, composite data) | # dead at 24 h (cockroaches [2]; [3]) | Proportion dead at 24 h (cockroaches [2]; [4]) | also measured
22 | ClC(Cl)Cl [Chloroform-anhydrous (67-66-3) (2.0 mg), Chloroform] | 1 | 0.050 |  |  | 
23 | CC(=O)CC(C)C [Methyl isobutyl ketone] | 1 | 0.048 |  |  | 
24 | CC(=O)OCC(COC(C)=O)OC(C)=O [Triacetin (102-76-1) (2.0 mg), Triacetin] | 1 | 0.033 |  |  | increase in mortality when combined with PD23 mineral oil (cockroaches [1]): greatest increase in mortality
25 | O=C1CCCO1 [gamma butyrolactone] |  |  |  |  | # dead at 24 h (cockroaches [1]; [6]): 3 and 5; Proportion dead at 24 hr (cockroaches [1]; [6]): 0.300 and 0.500
26 | CN1CCCC1=O [n-methyl pyrrolidone] |  | 0.100 |  |  | Proportion dead at 24 h (cockroaches [1]; Table 17, composite data, listed as n-methyl pyrrolidone (872-50-4) (0.10 mg)): 0.500; # dead at 24 h (cockroaches [1]; compound alone, 0.05 mg): 1; # dead at 24 h (cockroaches [1]; compound alone, 0.10 mg): 5
27 | CC(C)O [Isopropyl alcohol] |  |  | 0 | 0.000 | Proportion dead at 24 h (cockroaches [2]; Table 13, per replicate): 0.000; # dead at 24 h (cockroaches [2]; [5]): 0
28 | C[N+](=O)[O-] [nitromethane (75-52-5) (0.70 mg), nitromethane] | 0 |  |  |  | Proportion dead at 24 h (cockroaches [1]; [7]): 0.179; # dead at 24 h (cockroaches [1]; [7]): 5; increase in mortality when combined with PD23 mineral oil (cockroaches [1]): greatest increase in mortality
29 | CCCCCCCCCO [Composition 1-nonanol, 1-nonanol] |  |  | 1 | 0.024 | 
30 | c1ccncc1 [Pyridine (110-86-1) (0.10 mg), Pyridine] | 1 | 0.032 |  |  | increase in mortality when combined with PD23 mineral oil (cockroaches [1]): greatest increase in mortality
31 | Cc1ccccc1 [Toluene] |  |  |  |  | # dead at 24 h (cockroaches [1]; compound alone, 0.90 mg): 0; Proportion dead at 24 hr (cockroaches [1]; compound alone, 0.90 mg): 0.000
32 | Cc1ccccc1 [Toluene (108-88-3) (0.90 mg), Toluene] | 0 | 0.000 |  |  | 
33 | CCCCCCCCCCCCCCO [1-tetradecanol] |  |  | 4 | 0.108 | # dead at 24 h (cockroaches [2]; Table 13, per replicate of 10-16 treated cockroaches, mg per insect in the label, listed as 1-tetradecanol (1.00 mg)): 1 and 2; Proportion dead at 24 h (cockroaches [2]; Table 13, per replicate, listed as 1-tetradecanol (1.00 mg)): 0.083 and 0.154
34 | CCCCOCCO [2-butoxyethanol] |  |  | 0 | 0.000 | Proportion dead at 24 h (cockroaches [2]; Table 13, per replicate): 0.000; # dead at 24 h (cockroaches [2]; [5]): 0
35 | COC(C)(C)C [Methyl t-butyl ether] | 5 | 0.227 |  |  | # dead at 24 h (cockroaches [1]; compound alone, 2.00 mg): 2 and 3; Proportion dead at 24 hr (cockroaches [1]; compound alone, 2.00 mg): 0.300
36 | C1CCOC1 [Tetrahydrofuran] |  |  |  |  | # dead at 24 h (cockroaches [1]; compound alone, 0.80 mg): 3; Proportion dead at 24 hr (cockroaches [1]; compound alone, 0.80 mg): 0.300
37 | COCOC [Dimethoxymethane] |  | 0.000 |  |  | pest or weed control at 2 mg (cockroaches [1]; Blattella germanica, topical, 24 h, compound alone, 2.00 mg, read-out: Proportion dead at 24 hr): 0%; # dead at 24 h (cockroaches [1]; compound alone, 2.00 mg): 0; Proportion dead at 24 hr (cockroaches [1]; compound alone, 2.00 mg): 0.000
38 | OCCOCCO [Di(ethylene) glycol (111-46-6) (0.80 mg), Di(ethylene) glycol] | 6 |  |  |  | 
39 | CCOCC [diethyl ether] |  |  |  |  | # dead at 24 h (cockroaches [1]; compound alone, 2.00 mg): 0; Proportion dead at 24 hr (cockroaches [1]; compound alone, 2.00 mg): 0.000
40 | CCCCCC [Hexanes (110-54-3) (0.80 mg), Hexanes] | 1 | 0.100 |  |  | 
41 | CCOCCO [2-ethoxyethanol] | 1 | 0.033 |  |  | increase in mortality when combined with PD23 mineral oil (cockroaches [1]): greatest increase in mortality
